Reference: patent publication US9283242B2, “Uses of dihydro bases” (priority 2013, dated 2016)
Entries after “also recorded” stand apart in the source; their conditions may differ.

Tests used:
[1] = Variable temperature 1H NMR, tautomerism in DMF-d7; type: physicochemical; settings: DMF-d7, 20 to −60° C.
Protocol: At 20° C., exchangeable protons on the base moiety are observed at 7.58 ppm and 4.14 ppm (FIG. 10). At −60° C., exchangeable protons on the base moiety are observed at 8.70 ppm, 8.08 ppm, and 4.68 ppm (FIG. 11). Protons with a chemical shift of 8.70, 8.08, and 7.58 ppm likely correspond to enolic, amido, or imino protons, while protons with a chemical shift of 4.68 and 4.14 ppm likely correspond to amino protons. The expected chemical shifts for enolic, amido, and imino protons are relatively close, and thus these species cannot be assigned at this stage. […] Only the existence of multiple tautomeric species would explain the presence of three exchangeable protons resonances. […] Based on their chemical structures, the keto-amino tautomer will pair with guanine and the keto-imino/enol-imino tautomers can pair with adenine.
All NMR experiments were performed on Varian 500 MHz NMR spectrometers. The deuterated solvent DMF-d7 was from Cambridge Isotope Laboratories, Andover, Mass., USA. 5-Aza-5,6-dihydro-2′-deoxycytidine (KP1212) nucleoside was from Berry & Associates Inc., Dexter, Mich., USA. The NMR sample was prepared by dissolving 10 mg of KP1212 nucleoside in 1.0 ml DMF-d7 (final concentration ˜44 mM). ^1H NMR spectra were reported in parts per million (ppm) and were referenced to the signals for DMF-d7 (8.03 ppm). ^13C NMR spectra were referenced to the signals for DMF-d7 (163.15 ppm).
FIG. 14A depicts the structures of all five possible tautomers (1 to 5) of KP1212, among which the three active protons on the nucleobase shift among the 02, N3, N4 and N5 positions. […] Before assigning the three active protons on the nucleobase moiety, all non-exchangeable protons in KP1212 and the two hydroxyl protons on the 3′ and 5′ positions were identified by carrying out 1D (^1H and ^13C) and 2D (COSY, HSQC, and HMBC) NMR experiments. The NMR signals of the three active protons in the base portion of KP1212 were studied at different temperatures. […] When the temperature was decreased to −50° C., the three broad peaks resolved into six distinct proton resonances (FIG. 14B, denoted as peaks i-vi), which could be assigned to imino (designated as e and n in FIGS. 14A to 14C), amido (designated as g and m), enolic (designated as c and d) or amino (designated as a, b, f, h, i, j, k, l, and o) protons.
At −50° C. six distinct proton resonances (FIG. 14B, i to vi) were observed, attributable to protons bound either to nitrogen or to oxygen atom (for only the base portion of the KP1212 molecule). Integration of the six broad peaks permitted estimation of the relative ratios of the five tautomeric species that exist in solution (FIG. 14A).
The NMR data also allowed the determination of the relative ratios of the tautomeric species present in the DMF solution at −50° C. (FIGS. 14B and 14C). Several peaks in the NMR spectrum partially overlapped (e.g., iv and v), so the raw data were reconstructed using a least squares fit algorithm (FIG. 16). The reconstructed peaks from the simulation were integrated, yielding an estimate of the relative amounts of each of the proton resonances in the spectrum. […] 2) Based on the peak assignments from part 1), a system of linear equations was set up using the relative amounts of tautomers as unknown variables (FIG. 14D). Each NMR peak provided a linear equation whereby the peak area should be equal to the sum of all tautomers (as relative amounts) containing protons that contribute to that peak. The solutions of these equations yielded the relative ratios of the tautomeric species present in DMF at −50° C. (FIG. 14D).

[2] = tested on: HK82 (AlkB−) E. coli cells; type: cell-based
[3] = tested on: HK81 (AlkB+) E. coli cells; type: cell-based
Protocol: (A) A 16mer oligonucleotide containing KP1212 (SEQ ID NO: 1) (or controls) at a specific site was chemically synthesized and ligated into the genome of an M13 bacteriophage. (B) The KP1212-containing M13 genomes were replicated within E. coli cells. Progeny were analyzed to characterize the amount and the type of nucleic acid base placed opposite the lesion during replication. The relative reduction in lesion vs. non-lesion competitor progeny formation was used as an estimate of the extent to which KP1212 and m3C inhibited DNA replication. (C) The KP1212-containing M13 genomes were used as templates for in vitro polymerase extension assays, carried out at 72° C., using the high-fidelity DNA polymerase PfuTurbo. (D) Bypass efficiency (CRAB assay) of KP1212, m3C, C in HK81 (AlkB^+) and HK82 (AlkB^−) E. coli cells. m3C and undamaged C were used as controls. Genomes were made and normalized to one another before being combined with a competitor genome. Each mixture was transformed into the corresponding cell strain in triplicate, and bypass efficiency was calculated by using the undamaged C genome as 100% bypass, with error bars representing one standard deviation. (E) Mutagenesis (REAP assay) of KP1212, m3C, and C in HK82 (AlkB^−) E. coli cells. m3C, undamaged C, and an approximately equimolar mixture of genomes carrying unmodified G/A/T/C bases at the site of inquiry (denoted as GATC) were used as controls. Genomes containing the lesions of interest were transfected into E. coli in triplicate.
(§1) All E. coli strains used in this work contain the F′ episome, which enables infection by M13 phage. GW5100 strain was used for large scale preparation of M13 phage DNA, SCS 110 (JM110, end Al) was used for amplification of progeny phage post-electroporation, and NR9050 was the strain of choice for double agar plating with X-GAL for blue-clear detection of plaques. The E. coli strains used to replicate lesion-containing phage were HK81 (as AB1157, but nalA) and HK82 (as AB1157, but nalA alkB22; AlkB-deficient).

[4] = tested on: HK81 (AlkB+) E. coli cells; experiment: REAP mutagenesis assay, HK81 cells; type: cell-based
Description: as §1
(§2) Lesion-containing genomes were mixed with the competitor genome (80:20 molar ratio) and electroporated in triplicate into 100 μl competent cells using a 2 mm-gap cuvette and a BTX electroporator set to 2.5 kV and 125 a Typical pulse lengths were 4.9 msec. The cells were immediately transferred to 10 ml LB and an aliquot was immediately plated using the agar overlay method to verify that a minimum of 10^5 independent initial electroporation events occurred in 10 ml of culture. Incubation for 6 h at 37° C. with aeration generated the progeny phage, which were then reamplified in SCS 110 cells (10 μl overnight culture and 100 μl of the 6 h supernatant in 10 ml LB) to dilute out the residual genomic DNA used for electroporation. Single-stranded M13 progeny phage DNA was isolated from 1.4 ml of supernatant using a Q1Aprep Spin M13 Kit with final DNA suspension in 100 μl elution buffer. CRAB forward and reverse primers were used to amplify the region of interest from 15 μl per Q1Aprep elution sample in a total volume of 25 μl containing 50 pmol of each primer, 1×Pfu Turbo buffer, 1.25 U Pfu Turbo DNA polymerase and […] of each dNTP. The PCR program used 30 cycles of 67° C. (1 min) annealing and 72° C. (1 min) extensions. After purification using QIAQUICK PCR purification columns, 4 μl of the PCR product were treated with BbsI (1.5 U) and SAP (0.3 U) in a total volume of 6 μl by incubating at 37° C. for 4 h. After phosphatase inactivation, (80° C. for 5 min), the 5′ ends were then radiolabeled using [γ-^32P]-ATP (1.66 pmol, 10 μCi/μl, 6000 Ci/mmol), cold ATP (16 pmol) and 5 U of OPTIKINASE at 37° C. for 30 min. Following the kinase inactivation at 65° C. for 20 min, the labeled product was then trimmed by HaeIII (10 U in a final volume of 10 μl) at 37° C. for 2 h, and diluted 1:1 in formamide loading dye. PAGE separation on a 20% denaturing gel, run for about 3.5 h at 550 V, until the xylene cyanol dye migrated 10.5 cm, yielded two bands for each sample: an 18-mer originating from the lesion-containing genome and a 21-mer originating from the competitor genome. The gels were visualized on a phosphorimager (Typhoon 7000, GE Healthcare Life Sciences); the band intensities were quantified using IMAGEJ software (National Institutes of Health). Lesion bypass was calculated as the percentage ratio of the intensity of the 18-mer band (lesion signal) to the intensity of the 21-mer band (competitor signal).
(§3) The REAP assay methodology is identical to the CRAB assay except for the PCR primers, which amplified only the progeny DNA originating from the lesion-carrying genomes. Following electrophoresis, the 18-mer bands were excised from the gel, crushed and extracted with 200 μl water. After desalting with SEPHADEX G-50 Fine resin spin columns, the samples were lyophilized to dryness, resuspended in 5 μl containing 1 μg P1 Nuclease in 30 mM sodium acetate (pH 5.3) and 10 mM zinc chloride, and incubated at 50° C. for 1 h. One μl of each sample was then spotted onto PEI-TLC plates and separated using 200 ml of a saturated solution of (NH4)2HPO4 adjusted to pH 5.8. After 24 h of development, the TLC plates were air-dried and quantified using phosphorimagery. […]

HK82SOS = experiment: CRAB lesion bypass assay, HK82SOS cells; type: cell-based, E. coli; settings: percentage relative to unmodified control genome
Description: as §1
as §2, with “After purification using QIAQUICK PCR purification columns, 4 μl of the PCR product were treated with BbsI (1.5 U) and SAP (0.3 U) in a total volume of 6 μl by incubating at 37° C. for 4 h. After phosphatase inactivation, (80° C. for 5 min), the 5′ ends were then radiolabeled using [γ-^32P]-ATP (1.66 pmol, 10 μCi/μl, 6000 Ci/mmol), cold ATP (16 pmol) and 5 U of OPTIKINASE at 37° C. for 30 min. Following the kinase inactivation at 65° C. for 20 min, the labeled product was then trimmed by HaeIII (10 U in a final volume of 10 μl) at 37° C. for 2 h, and diluted 1:1 in formamide loading dye. PAGE separation on a 20% denaturing gel, run for about 3.5 h at 550 V, until the xylene cyanol dye migrated 10.5 cm, yielded two bands for each sample: an 18-mer originating from the lesion-containing genome and a 21-mer originating from the competitor genome.” left out, “signal). […]” for “signal).”

[5] = tested on: HK82 (AlkB−) E. coli cells; type: cell-based; remark: listed apart in the source
HK82-SOS = experiment: REAP mutagenesis assay, HK82-SOS cells; type: cell-based, E. coli; settings: (b) HK82-SOS
Description: as §1, §2, §3

Compound	tautomerism by Variable Temperature NMR [1]	replication block / toxicity to replication ([2]; E. coli (FIG. 18D), for m3C cells that lack AlkB)	Polymerase bypass efficiency, Avg. ([2]; HK82, percentage relative to unmodified control genome, triplicate)	Polymerase bypass efficiency, Avg. ([3]; HK81, percentage relative to unmodified control genome)	toxicity to replication ([3]; cells that expressed the repair enzyme AlkB)	Mutagenicity, Average % C [4]	Mutagenicity, Average % A ([4]; (c) HK81)	Mutagenicity, Average % G ([4]; (c) HK81)	Mutagenicity, Average % T ([4]; (c) HK81)	Polymerase bypass efficiency, Avg. (HK82SOS)	Mutagenicity, Average % A ([5]; (a) HK82)	Mutagenicity, Average % C ([5]; (a) HK82)	Mutagenicity, Average % G ([5]; (a) HK82)	Mutagenicity, Average % T ([5]; (a) HK82)	base pairing / mutagenicity (in words) ([5]; FIGS. 18C, 18E, m3C in repair deficient cells)	Mutagenicity, Average % A (HK82-SOS)	Mutagenicity, Average % C (HK82-SOS)	Mutagenicity, Average % G (HK82-SOS)	Mutagenicity, Average % T (HK82-SOS)
Nc1ncn([C@H]2C[C@H](O)[C@@H](CO)O2)c(=O)n1 [5-Aza-dC, 5-aza-2′-deoxycytidine]	does not show multiple tautomerism; also recorded: single tautomerism	–	–	–	–	–	–	–	–	–	–	–	–	–	–	–	–	–	–
NC1=NC(=O)N(C2CC(O)C(CO)O2)CC1 (centres unmarked) [DHdC]	shows multiple tautomerism; also recorded: multiple tautomers	–	–	–	–	–	–	–	–	–	–	–	–	–	–	–	–	–	–
Cn1c(N)ccnc1=O [m3C, 3-methylcytosine]	–	very toxic to replication	14%	113%	toxicity was abolished	100.0%	0.0%	0.0%	0.0%	45%	30.6%	13.2%	1.3%	54.9%	mispair with both A and T	33.6%	5.7%	3.2%	57.5%
